Among the test systems are CAKI-1 renal; KM12 colon; MALME-3M melanoma; NCI-H23 lung; OVCAR-3 ovarian; OVCAR-4 ovarian; SF-268 CNS; SF-539 CNS; TK-10 renal; UACC-62 melanoma.
Common to all, as to experiment: inhibition of tumour cell growth, NCI panel, 48 h

The structures appear in SMILES notation. Values joined by “and” are separate entries in the source; they are usually repeats but may differ in a detail not shown here. Identical values can stand only once.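 Exposure lasted 48 hours, with cells grown in 96-well plates and compounds tested at five concentrations. Abbreviation: GI50, concentration required for 50% inhibition of growth. TGI denotes the concentration required for complete inhibition of growth.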

In the case of `[CH3][Sn]([CH3])([CH3])[O]C(=O)C(O)c1ccccc1` (configuration not stated), the GI50 in the test with CAKI-1 renal is 4.95 µM; with KM12 colon, 8.78 µM; in the test on MALME-3M melanoma it was 5.6 µM; in the test on NCI-H23 lung, 6.68 µM; with OVCAR-3 ovarian it was 5.38 µM; in the test on OVCAR-4 ovarian, 7.51 µM. For the same compound, the GI50 with SF-268 CNS was 6.2 µM; in the test with SF-539 CNS, 5.9 µM; in the test on TK-10 renal, greater than 59.3 µM; in the test on UACC-62 melanoma, 2.11 µM. Also, the TGI in the test on CAKI-1 renal is 34.5 µM; in the test on KM12 colon, greater than 100 µM; in the test on MALME-3M melanoma it was 24.8 µM; with NCI-H23 lung it was 61.8 µM; in the test with OVCAR-3 ovarian, 66.2 µM; in the test on OVCAR-4 ovarian, greater than 100 µM. In addition, the TGI with SF-268 CNS is greater than 82.7 µM; with SF-539 CNS, 29.2 µM; in the test on TK-10 renal it was greater than 100 µM; in the test on UACC-62 melanoma, 4.49 µM.
For the compound `C/C(=C\CCc1ccsc1)CC/C=C(\C)CCCN1CCN(CCO)CC1`, the GI50 is 4.26 µM in the test with CAKI-1 renal; 2.38 µM in the test with KM12 colon; 1.87 µM with MALME-3M melanoma; 3.37 µM in the test with NCI-H23 lung; 3.16 µM in the test with OVCAR-3 ovarian; 2.7 µM with OVCAR-4 ovarian. In addition, the GI50 with SF-268 CNS was 5.44 µM; in the test on SF-539 CNS, 3.41 µM; in the test on TK-10 renal, 2.5 µM; in the test with UACC-62 melanoma, 1.73 µM. Further, the TGI was 16.4 µM with CAKI-1 renal; 5.66 µM in the test with KM12 colon; 3.73 µM in the test with MALME-3M melanoma; 13.4 µM with NCI-H23 lung; 11.2 µM with OVCAR-3 ovarian; 14.7 µM in the test with OVCAR-4 ovarian. Further, the TGI with SF-268 CNS is 19.8 µM; with SF-539 CNS, 13.9 µM; in the test with TK-10 renal, 7.34 µM; in the test on UACC-62 melanoma, 3.75 µM.
`COC(=O)CSc1n[nH]c(-c2ccccc2)n1`: the TGI in the test with CAKI-1 renal, with KM12 colon, in the test on MALME-3M melanoma, with NCI-H23 lung, in the test with OVCAR-3 ovarian and in the test with OVCAR-4 ovarian was greater than 100 µM each time. In addition, the TGI in the test with SF-268 CNS, with SF-539 CNS, in the test on TK-10 renal and in the test on UACC-62 melanoma was greater than 100 µM throughout.
With `Cc1ccc2c(n1)C(=O)C(Cl)=C(Nc1ccc(N3CCN(C)CC3)cc1)C2=O`, the GI50 was 1.68 µM in the test with CAKI-1 renal; 10.2 µM in the test with KM12 colon; 1.62 µM in the test on MALME-3M melanoma; 1.79 µM with NCI-H23 lung; 1.63 µM in the test on OVCAR-3 ovarian; 1.5 µM in the test with OVCAR-4 ovarian. Also, the GI50 was 1.89 µM in the test with SF-268 CNS, 1.74 µM in the test with SF-539 CNS, 1.95 µM in the test on TK-10 renal and 1.71 µM with UACC-62 melanoma. Further, the TGI in the test with CAKI-1 renal came to 3.08 µM; with KM12 colon it was 23.5 µM; in the test with MALME-3M melanoma, 2.99 µM; with NCI-H23 lung it was 3.75 µM; with OVCAR-3 ovarian, 3.13 µM; in the test with OVCAR-4 ovarian, 2.87 µM. For the same compound, the TGI in the test on SF-268 CNS was found to be 4.13 µM; in the test on SF-539 CNS it was 3.22 µM; in the test with TK-10 renal, 3.42 µM; with UACC-62 melanoma it was 3.12 µM.
In the case of `Cc1ccn2c(-c3csc(Nc4cccc(O)c4)n3)c(C)nc2c1`, the GI50 was 1.21 µM with CAKI-1 renal; 0.273 µM in the test on KM12 colon; 0.444 µM with MALME-3M melanoma; 1.01 µM with NCI-H23 lung; 0.32 µM in the test with OVCAR-3 ovarian; 2.43 µM with OVCAR-4 ovarian. Moreover, the GI50 is 0.785 µM with SF-268 CNS, 0.498 µM in the test with SF-539 CNS, 4.88 µM in the test with TK-10 renal and 0.712 µM in the test on UACC-62 melanoma. Besides, the TGI with CAKI-1 renal amounted to 21.2 µM; in the test on KM12 colon, 16.4 µM; with MALME-3M melanoma it was 25 µM; in the test with NCI-H23 lung it was 19.7 µM; with OVCAR-3 ovarian it was 0.914 µM; in the test with OVCAR-4 ovarian, 53.2 µM. Moreover, the TGI amounted to 42.6 µM with SF-268 CNS, 3.75 µM in the test on SF-539 CNS, 24.9 µM in the test with TK-10 renal and 19.2 µM with UACC-62 melanoma.
Take `COc1ccc(/C=c2\sc3nnc(CCC(=O)Nc4cccc(C(F)(F)F)c4)n3c2=O)cc1`: the TGI in the test on CAKI-1 renal, in the test with KM12 colon, with MALME-3M melanoma, with NCI-H23 lung, in the test with OVCAR-3 ovarian and with OVCAR-4 ovarian was greater than 100 µM throughout. In addition, the TGI with SF-268 CNS, in the test with SF-539 CNS, with TK-10 renal and in the test on UACC-62 melanoma was greater than 100 µM throughout.
For the compound `c1cc2ccc3cc2cc1CNCCOCCNCc1ccc2ccc(cc2c1)CNCCOCCNC3`, the GI50 in the test on CAKI-1 renal, with KM12 colon, in the test on MALME-3M melanoma, in the test with NCI-H23 lung, in the test with OVCAR-3 ovarian and with OVCAR-4 ovarian was greater than 100 µM throughout. Moreover, the GI50 with SF-268 CNS, in the test on SF-539 CNS, in the test on TK-10 renal and in the test with UACC-62 melanoma was greater than 100 µM throughout. Moreover, the TGI with CAKI-1 renal, in the test on KM12 colon, with MALME-3M melanoma, in the test on NCI-H23 lung, in the test with OVCAR-3 ovarian and in the test on OVCAR-4 ovarian was greater than 100 µM in each case. Moreover, the TGI in the test on SF-268 CNS, in the test on SF-539 CNS, in the test on TK-10 renal and in the test on UACC-62 melanoma was greater than 100 µM in each case.
Take `Cc1ccc(NC(C(=O)c2ccccc2)c2ccccc2)cc1` (configuration not stated): the GI50 in the test with CAKI-1 renal was 10.6 µM; with KM12 colon it was 2.59 µM; in the test with MALME-3M melanoma, 2.42 µM; with NCI-H23 lung, 3.5 µM; with OVCAR-3 ovarian it was 3.31 µM; with OVCAR-4 ovarian, 3.93 µM. Further, the figures for the GI50 in the test with SF-268 CNS, with SF-539 CNS and in the test with UACC-62 melanoma were 3.1 µM, 13 µM and 3.93 µM, respectively. The TGI in the test with CAKI-1 renal is 39.7 µM; with KM12 colon, 13.4 µM; with MALME-3M melanoma, 9.52 µM; with NCI-H23 lung, greater than 100 µM; in the test on OVCAR-3 ovarian, 59.9 µM; in the test with OVCAR-4 ovarian, greater than 100 µM. In addition, the TGI is 14.2 µM in the test with SF-268 CNS, greater than 100 µM with SF-539 CNS and greater than 100 µM in the test with UACC-62 melanoma.
`CC1=C(C(=O)Nc2cccc(C(F)(F)F)c2)C(c2ccccc2F)C(C(=O)Nc2cccc(C(F)(F)F)c2)=C(C)N1`: the TGI in the test with CAKI-1 renal worked out at 25 µM; with KM12 colon, 14.8 µM; in the test with MALME-3M melanoma, 21.8 µM; with NCI-H23 lung, 17 µM; in the test on OVCAR-3 ovarian, 17.8 µM; with OVCAR-4 ovarian, 14 µM. In addition, the TGI is 23.8 µM in the test on SF-539 CNS and 25.7 µM in the test on TK-10 renal.
For the compound `CCCCCCCCCCCCNC(=O)[C@H]1CSC(c2cc(Br)cs2)N1` (some centres not stated), the GI50 in the test on CAKI-1 renal is 0.971 µM; in the test on KM12 colon, 1.05 µM; with MALME-3M melanoma, 3.68 µM; in the test with NCI-H23 lung, 1.53 µM; with OVCAR-3 ovarian it was 1.15 µM; in the test with OVCAR-4 ovarian, 0.917 µM. The values for the GI50 in the test with SF-268 CNS, with SF-539 CNS and with TK-10 renal were 0.598 µM, 0.95 µM and 0.951 µM, respectively. For the same compound, the TGI is 2.04 µM with CAKI-1 renal; 2.37 µM in the test on KM12 colon; 10.2 µM in the test with MALME-3M melanoma; 5.11 µM with NCI-H23 lung; 2.38 µM in the test on OVCAR-3 ovarian; 1.95 µM in the test with OVCAR-4 ovarian. Moreover, the TGI in the test with SF-268 CNS was 1.42 µM; in the test with SF-539 CNS it was 1.87 µM; with TK-10 renal it was 1.82 µM.
With `CC[C@@]1(O)C(=O)OCc2c1cc1n(c2=O)Cc2cc3c(Cl)c4c(cc3nc2-1)OCO4`, the GI50 in the test on CAKI-1 renal was less than 0.001 µM; in the test with KM12 colon, 0.162 µM and 0.108 µM; with MALME-3M melanoma, 0.087 µM; with NCI-H23 lung it was less than 0.001 µM; in the test on OVCAR-3 ovarian it was 0.653 µM and 1.77 µM; in the test with SF-268 CNS, 0.0216 µM. In addition, the GI50 in the test with SF-539 CNS and in the test on UACC-62 melanoma was less than 0.001 µM throughout. For the same compound, the TGI in the test on CAKI-1 renal is greater than 100 µM; in the test with KM12 colon, greater than 100 µM; in the test on MALME-3M melanoma it was 31.4 µM; with OVCAR-3 ovarian, greater than 100 µM; in the test with SF-268 CNS it was 13.2 µM; with SF-539 CNS it was 0.0924 µM. Moreover, the TGI with TK-10 renal was 10.6 µM; with UACC-62 melanoma, 0.337 µM and 0.544 µM.
As for `O=C(O)CC1C(=O)OC2C3COC(=O)c4cc(O)c(O)c(O)c4-c4c(cc(O)c(O)c4O)C(=O)OC2C(OC(=O)c2cc(O)c(O)c4c2C1C(O)C(=O)O4)C(OC(=O)c1cc(O)c(O)c(O)c1)O3` (configuration not stated), the TGI was 42.9 µM with CAKI-1 renal; 42.6 µM in the test with KM12 colon; greater than 100 µM in the test on MALME-3M melanoma; greater than 100 µM with NCI-H23 lung; 72.8 µM with OVCAR-3 ovarian; greater than 100 µM in the test with OVCAR-4 ovarian. The TGI with SF-268 CNS, in the test on SF-539 CNS and with TK-10 renal was greater than 100 µM in each case.
Regarding `NC(=O)c1ccccc1NC(=O)C(=O)Nc1n[nH]c(N)n1`, the TGI in the test on CAKI-1 renal, in the test on KM12 colon, in the test with MALME-3M melanoma, with NCI-H23 lung, in the test on OVCAR-3 ovarian and with OVCAR-4 ovarian was greater than 100 µM throughout. In addition, the TGI in the test with SF-539 CNS, with TK-10 renal and with UACC-62 melanoma was greater than 100 µM in each case.
Take `Cc1nn2c(=O)n(-c3cccc(-n4nnc5c(-c6ccccc6)c(C)nn5c4=O)c3C)nnc2c1-c1ccccc1`: the TGI in the test with CAKI-1 renal was greater than 100 µM; in the test with MALME-3M melanoma, 56 µM; with NCI-H23 lung it was greater than 100 µM; in the test with OVCAR-3 ovarian, 44.3 µM; in the test on OVCAR-4 ovarian, 53.7 µM; with SF-268 CNS, greater than 100 µM. Besides, the TGI in the test on SF-539 CNS was 64 µM; with TK-10 renal it was greater than 100 µM; in the test with UACC-62 melanoma, greater than 100 µM.

For the origin of these results see PubChem BioAssay (NCI).
